Reference: patent publication EP4745138A1, “THIO-GLUTARIMIDO ISOINDOLINONE DERIVATIVE, BIFUNCTIONAL PROTEIN DEGRADER CONTAINING SAME, AND USES THEREOF” (Gluetacs Therapeutics (Shanghai) Co., Ltd., priority 2023, dated 2025)

Target: T1, human Cereblon WT GST-tagged protein (Homo sapiens, UniProt Q96SW2)
T1 construct: purchased CISBIO 64BDCRBNPEH
Test: CRBN-binding affinity, HTRF (CEREBLON BINDING kit)
Conditions: for inhibition at 0.5 µM: read-out: Inhibition Rate at 0.5 µM (%); for inhibition at 2 µM: read-out: Inhibition Rate at 2 µM (%)
Description: The CEREBLON BINDING kits (specification: 10,000 tests; product number: Catalog # 64BDCRBNPEH; CISBIO company) was used to determine the CRBN binding ability of the compounds to be tested through a HTRF method (homogeneous time-resolved fluorescence). The specific methods are as follows: • 1. […] Specifically, diluent #9 (1X) solution was used as the diluent, and multiple concentration gradients were set. […] Into the 96-well plate, the diluted test compounds and corresponding detection reagents were added, resulting in final test compound concentrations of 2 µM and 0.5 µM, respectively. […] Then, 2.5 µL of human Cereblon WT GST-tagged protein solution was added to each well. Finally, 5 µL of the thoroughly mixed Thalidomide-Re reagent and GST Eu antibody working solution were added to each of the aforementioned wells. […] The blank control wells were sequentially added with 2.5 µL of diluent #9 (1X) solution, 2.5 µL of PROTAC binding buffer, and 5 µL of thoroughly mixed Thalidomide-Re reagent and GST Eu antibody working solution. • 4.

T1 sequence (Q96SW2 whole entry): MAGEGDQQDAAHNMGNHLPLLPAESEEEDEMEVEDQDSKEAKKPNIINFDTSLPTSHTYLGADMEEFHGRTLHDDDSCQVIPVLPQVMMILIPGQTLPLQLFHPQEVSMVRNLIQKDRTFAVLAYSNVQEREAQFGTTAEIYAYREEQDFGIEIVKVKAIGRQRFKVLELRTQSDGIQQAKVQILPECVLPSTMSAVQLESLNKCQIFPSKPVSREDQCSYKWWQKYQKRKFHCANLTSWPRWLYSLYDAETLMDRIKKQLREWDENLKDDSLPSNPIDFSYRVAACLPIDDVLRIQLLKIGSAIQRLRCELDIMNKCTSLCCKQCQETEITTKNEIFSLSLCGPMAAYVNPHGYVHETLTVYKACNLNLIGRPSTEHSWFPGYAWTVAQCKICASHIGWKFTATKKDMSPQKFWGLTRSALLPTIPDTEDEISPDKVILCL

Row | inhibition at 0.5 µM [%] | inhibition at 2 µM [%] | SMILES
1 | 40 to 53 | 80 to 100 | Nc1ncnc2c1c(-c1ccc(Oc3ccccc3)cc1)nn2C1CCN(Cc2ccc3c(c2)C(=S)N(C2CCC(=O)NC2=O)C3)CC1 (stereo not drawn) [GT-09441, 3-(6-((4-(4-amino-3-(4-phenoxyphenyl)-1H-pyrazolo[3,4-d]pyrimidin-1-yl)piperidin-1-yl)methyl)-1-thioxoisoindolin-2-yl)piperidine-2,6-dione]
2 | 53 to 60 | 60 to 80 | CN(c1cccc(CNc2nc(Nc3ccc(N4CCN(Cc5ccc6c(c5)C(=S)N(C5CCC(=O)NC5=O)C6)CC4)cc3)ncc2C(F)(F)F)c1)S(C)(=O)=O (stereo not drawn) [GT-09438, N-(3-(((2-((4-(4-((2-(2,6-dioxopiperidin-3-yl)-3-thioxoisoindolin-5-yl)methyl)piperazin-1-yl)phenyl)amino)-5-(trifluoromethyl)pyrimidin-4-yl)amino)methyl)phenyl)-N-methylmethanesulfonamide]
3 | 60 to 80 | 100 to 110 | COc1ccc2cn(C3CCN(Cc4ccc5c(c4)CN(C4CCC(=O)NC4=O)C5=S)CC3)nc2c1NC(=O)c1cccc(C(F)(F)F)c1 (stereo not drawn) [GT-09413, N-(2-(1-((2-(2,6-dioxopiperidin-3-yl)-1-thioxoisoindolin-5-yl)methyl)piperidin-4-yl)-6-methoxy-2H-indazol-7-yl)-3-(trifluoromethyl)benzamide]
4 | 80 to 100 | 80 to 100 | Nc1nc(Nc2ccc(S(=O)(=O)N3CCN(Cc4ccc5c(c4)C(=S)N(C4CCC(=O)NC4=O)C5)CC3)cc2)nn1C(=O)c1c(F)cccc1F (stereo not drawn) [GT-08796, 3-(6-((4-((4-((5-amino-1-(2,6-difluorobenzoyl)-1H-1,2,4-triazol-3-yl)amino)phenyl)sulfonyl)piperazin-1-yl)methyl)-1-thioxoisoindolin-2-yl)piperidine-2,6-dione]
5 | 40 to 53 | 60 to 80 | CCc1cc2c(cc1N1CCN(Cc3ccc4c(c3)CN(C3CCC(=O)NC3=O)C4=S)CC1)C(C)(C)c1[nH]c3cc(C#N)ccc3c1C2=O (stereo not drawn) [GT-09424, 8-(4-((2-(2,6-dioxopiperidin-3-yl)-1-thioxoisoindolin-5-yl)methyl)piperazin-1-yl)-9-ethyl-6,6-dimethyl-11-oxo-6,11-dihydro-5H-benzo[b]carbazole-3-carbonitrile]
6 | 53 to 60 | 80 to 100 | CCN(c1cc(-c2ccc(CN3CCN(Cc4ccc5c(c4)CN(C4CCC(=O)NC4=O)C5=S)CC3)cc2)cc(C(=O)NCc2c(C)cc(C)[nH]c2=O)c1C)C1CCOCC1 (stereo not drawn) [GT-08886, N-((4,6-dimethyl-2-oxo-1,2-dihydropyridin-3-yl)methyl)-4'-((4-((2-(2,6-dioxopiperidin-3-yl)-1-thioxoisoindolin-5-yl)methyl)piperazin-1-yl)methyl)-5-(ethyl(tetrahydro-2H-pyran-4-yl)amino)-4-methyl-[1,1-biphenyl]-3-carboxamide]
7 | 60 to 80 | 80 to 100 | CCN(c1cc(-c2ccc(N3CCN(Cc4ccc5c(c4)CN(C4CCC(=O)NC4=O)C5=S)CC3)cc2)cc(C(=O)NCc2c(C)cc(C)[nH]c2=O)c1C)C1CCOCC1 (stereo not drawn) [GT-08887, N-((4,6-dimethyl-2-oxo-1,2-dihydropyridin-3-yl)methyl)-4'-(4-((2-(2,6-dioxopiperidin-3-yl)-1-thioxoisoindolin-5-yl)methyl)piperazin-1-yl)-5-(ethyl(tetrahydro-2H-pyran-4-yl)amino)-4-methyl-[1,1-biphenyl]-3-carboxamide]
8 | 20 to 30 | 60 to 80 | COc1cc2nn(C3CCN(Cc4cccc5c4CN(C4CCC(=O)NC4=O)C5=S)CC3)cc2cc1NC(=O)c1cccc(C(F)(F)F)c1 (stereo not drawn) [GT-09414, N-(2-(1-((2-(2,6-dioxopiperidin-3-yl)-1-thioxoisoindolin-4-yl)methyl)piperidin-4-yl)-6-methoxy-2H-indazol-5-yl)-3-(trifluoromethyl)benzamide]
9 | 53 to 60 | 60 to 80 | Nc1nc(Nc2ccc(S(=O)(=O)N3CCN(Cc4cccc5c4CN(C4CCC(=O)NC4=O)C5=S)CC3)cc2)nn1C(=O)c1c(F)cccc1F (stereo not drawn) [GT-08795, 3-(4-((4-((4-((5-amino-1-(2,6-difluorobenzoyl)-1H-1,2,4-triazol-3-yl)amino)phenyl)sulfony 1)piperazin-1-yl)methyl)-1-thioxoisoindolin-2-yl)piperidine-2,6-dione]
10 | 53 to 60 | 60 to 80 | Cc1cc(S(=O)(=O)N2CCN(Cc3ccc4c(c3)C(=S)N(C3CCC(=O)NC3=O)C4)CC2)ccc1Nc1ncc(Br)c(Nc2cccc(F)c2C(N)=O)n1 (stereo not drawn) [GT-08794, 2-((5-bromo-2-((4-((4-((2-(2,6-dioxopiperidin-3-yl)-3-thioxoisoindolin-5-yl)methyl)piperazin-1-yl)sulfonyl)-2-methylphenyl)amino)pyrimidin-4-yl)amino)-6-fluorobenzamide]

The remaining lines, values behind:

Row | SMILES | inhibition at 0.5 µM [%] | inhibition at 2 µM [%]
11 | Nc1nnc(-c2ccccc2O)cc1N1CCN(Cc2ccc3c(c2)CN(C2CCC(=O)NC2=O)C3=S)CC1 (stereo not drawn) [GT-08785, 3-(5-((4-(3-amino-6-(2-hydroxyphenyl)pyridazin-4-yl)piperazin-1-yl)methyl)-1-thioxoisoindolin-2-yl)piperidine-2,6-dione] | 60 to 80 | 80 to 100
12 | Nc1nnc(-c2cc(F)ccc2O)cc1N1CCN(Cc2ccc3c(c2)CN(C2CCC(=O)NC2=O)C3=S)CC1 (stereo not drawn) [GT-08712, 3-(5-((4-(3-amino-6-(5-fluoro-2-hydroxyphenyl)pyridazin-4-yl)piperazin-1-yl)methyl)-1-thioxoisoindolin-2-yl)piperidine-2,6-dione] | 60 to 80 | 80 to 100
13 | CC(C)(O)c1cc2nc(C3CCN(Cc4ccc5c(c4)CN(C4CCC(=O)NC4=O)C5=S)CC3)oc2cc1NC(=O)c1cccc(C(F)(F)F)n1 (stereo not drawn) [GT-05320, N-(2-(1-((2-(2,6-dioxopiperidin-3-yl)-1-thioxoisoindolin-5-yl)methyl)piperidin-4-yl)-5-(2-hydroxypropan-2-yl)benzo[d]oxazol-6-yl)-6-(trifluoromethyl)picolinamide] | 80 to 100 | 80 to 100
14 | Nc1nnc(-c2cc(F)ccc2O)cc1N1CC2CCC(C1)N2Cc1ccc2c(c1)CN(C1CCC(=O)NC1=O)C2=S (stereo not drawn) [GT-08713, 3-(5-((3-(3-amino-6-(5-fluoro-2-hydroxyphenyl)pyridazin-4-yl)-3,8-diazabicyclo[3.2.1]octan-8-yl)methyl)-1-thioxoisoindolin-2-yl)piperidine-2,6-dione] | 40 to 53 | 80 to 100
15 | Nc1nnc(-c2cc(F)ccc2O)cc1N1CCN(Cc2ccc3c(c2)C(=S)N(C2CCC(=O)NC2=O)C3)CC1 (stereo not drawn) [GT-08789, 3-(6-((4-(3-amino-6-(5-fluoro-2-hydroxyphenyl)pyridazin-4-yl)piperazin-1-yl)methyl)-1-thioxoisoindolin-2-yl)piperidine-2,6-dione] | 60 to 80 | 80 to 100
16 | N#CC1(CNc2nc(-c3cc(NC4CCN(Cc5ccc6c(c5)C(=S)N(C5CCC(=O)NC5=O)C6)CC4)ncc3Cl)cs2)CCOCC1 (stereo not drawn) [GT-08750, 4-(((4-(5-chloro-2-((1-((2-(2,6-dioxopiperidin-3-yl)-3-thioxoisoindolin-5-yl)methyl)piperidin-4-yl)amino)pyridin-4-yl)thiazol-2-yl)amino)methyl)tetrahy dro-2H-pyran-4-carbonitrile] | 60 to 80 | 80 to 100
17 | CC(C)(O)c1cc2nc(C3CCN(Cc4ccc5c(c4)CN(C4CCC(=O)NC4=O)C5=S)CC3)sc2cc1NC(=O)c1cccc(C(F)(F)F)n1 (stereo not drawn) [GT-05298, N-(2-(1-((2-(2,6-dioxopiperidin-3-yl)-1-thioxoisoindolin-5-yl)methyl)piperidin-4-yl)-5-(2-hydroxypropan-2-yl)benzo[d]thiazol-6-yl)-6-(trifluoromethyl)picolinamide] | 80 to 100 | 80 to 100
18 | COc1cc(N2CCC(N3CCN(Cc4cccc5c4CN(C4CCC(=O)NC4=O)C5=S)CC3)CC2)c(C)cc1Nc1ncc(Br)c(Nc2ccc3nccnc3c2P(C)(C)=O)n1 (stereo not drawn) [GT-05058, 3-(4-((4-(1-(4-((5-bromo-4-((5-(dimethylphosphoryl)quinoxalin-6-yl)amino)pyrimidin-2-yl)amino)-5-methoxy-2-methylphenyl)piperidin-4-yl)piperazin-1-yl)methyl)-1-thioxoisoindolin-2-yl)piperidine-2,6-dione] | 40 to 53 | 80 to 100
19 | Nc1nnc(-c2cc(F)ccc2O)cc1N1CCN(Cc2cccc3c2CN(C2CCC(=O)NC2=O)C3=S)CC1 (stereo not drawn) [GT-08788, 3-(4-((4-(3-amino-6-(5-fluoro-2-hydroxyphenyl)pyridazin-4-yl)piperazin-1-yl)methyl)-1-thioxoisoindolin-2-yl)piperidine-2,6-dione] | 40 to 53 | 80 to 100
20 | CC(C)Nc1cc(-n2ccc3cc(C#N)cnc32)ncc1C(=O)NC1CCN(Cc2ccc3c(c2)CN(C2CCC(=O)NC2=O)C3=S)CC1 (stereo not drawn) [GT-05294, 6-(5-cyano-1H-pyrrolo[2,3-b]pyridin-1-yl)-N-(1-((2-(2,6-dioxopiperidin-3-yl)-1-thioxoisoindolin-5-yl)methyl)piperidin-4-yl)-4-(isopropylamino)nicotinamide] | 60 to 80 | 80 to 100
21 | COc1cc2nn(C3CCN(Cc4ccc5c(c4)CN(C4CCC(=O)NC4=O)C5=S)CC3)cc2cc1NC(=O)c1cccc(C(F)(F)F)c1 (stereo not drawn) [GT-05295, N-(2-(1-((2-(2,6-dioxopiperidin-3-yl)-1-thioxoisoindolin-5-yl)methyl)piperidin-4-yl)-6-methoxy-2H-indazol-5-yl)-3-(trifluoromethyl)benzamide] | 60 to 80 | 80 to 100
